The text below walks through data of publication PMC7558535, “In Vitro Metabolism of DWP16001, a Novel Sodium-Glucose Cotransporter 2 Inhibitor, in Human and Animal Hepatocytes” (Pharmaceutics, 2020).

Structures are written as SMILES. Like-named read-outs stand apart in the source and are kept apart here.

For orientation: IC50 means the point on the concentration scale where inhibition reaches its midpoint.

Data set [1] concerns 11 human CYP enzymes. Nature of the data set: CYP screening, whole panel. The class given is in vitro ADME. The method, then: DWP16001, M1, or M2 was incubated with 11 human cDNA-expressed CYP enzymes (1A1, 1A2, 2A6, 2B6, 2C8, 2C9, 2C19, 2D6, 2E1, 3A4, and 3A5) to identify the CYP enzymes involved in the metabolism of DWP16001. Reaction mixtures of 95 µL containing DWP16001 (final concentration: 5 µM), M1 or M2 (final concentration: 10 µM), and CYPs (final amount: 10 pmol) were prepared in 0.1 M potassium phosphate buffer (pH 7.4). The reaction was started by adding 5 µL of NADPH-generating system; the mixtures were incubated for 30 min at 37 °C in triplicate. Reactions were stopped by the addition of 400 µL of ice-cold ketoconazole (internal standard, 200 ng/mL) in ice-cold acetonitrile. Samples were centrifuged at 15,000× g for 8 min at 4 °C. Seventy-five microliter aliquots of the supernatants were diluted with 75 µL of deionized water and analyzed using an LC–MS/MS system.

In data set [2] the test system is 13 human UGT enzymes. Briefly: UGT screening, whole panel. It counts as in vitro ADME. The settings on record: incubation of M1 with 13 human UGT enzymes and UDPGA. The procedure:
To screen for UGT enzymes responsible for glucuronidation of DWP16001, 100 μL of reaction mixtures containing 13 human cDNA-expressed UGT enzymes (1A1, 1A3, 1A4, 1A6, 1A7, 1A8, 1A9, 1A10, 2B4, 2B7, 2B10, 2B15, and 2B17) at 0.1 mg protein/mL, 5 mM UDPGA, 0.025 mg/mL alamethicin, and 25 μM DWP16001 or M1 in 50 mM Tris buffer (pH 7.4) were incubated at 37 °C for 30 min in triplicate. Reactions were stopped by adding 100 μL of ketoconazole (internal standard, 200 ng/mL) in acetonitrile, followed by vortex-mixing and centrifugation (15,000× g, 8 min, 4 °C). The supernatant (75 μL) was diluted with equal volume of 30% acetonitrile and aliquots (5 μL) were injected into an LC-MS/MS system.

Data set [3] concerns SGLT2. On the set-up: method as in PMID 32183468. The settings on record: read-out: IC50 (SGLT2 inhibition); cited from earlier work.
The conditions of data set [4]: cited from earlier work.
For data set [5], the system named is human hepatocytes. The conditions noted are these: cited from earlier work.
The conditions of data set [6]: human, cited from earlier work.
The conditions of data set [7]: human; cited from earlier work.

Turning to `OC[C@H]1O[C@@H](c2cc(Cc3ccc(C4(O)CC4)cc3)c(Cl)c3c2CCO3)[C@H](O)[C@@H](O)[C@@H]1O` [M2, (2S,3R,4R,5S,6R)-2-(7-chloro-6-(4-(1-hydroxycyclopropyl)benzyl)-2,3-dihydrobenzofuran-4-yl)-6-(hydroxymethyl)tetrahydro-2H-pyran-3,4,5-triol], the “Formation of M5 from M2” value in data set [1] (incubation of M2 with 11 human CYP enzymes and NADPH) was “not detected”.
Consider `OC[C@H]1O[C@@H](c2cc(Cc3ccc(C4CC4)cc3)c(Cl)c3c2CC(O)O3)[C@H](O)[C@@H](O)[C@@H]1O` (stereo partly drawn) [M1, (2S,3R,4R,5S,6R)-2-(7-chloro-6-(4-cyclopropylbenzyl)-2-hydroxy-2,3-dihydrobenzofuran-4-yl)-6-(hydroxymethyl)tetrahydro-2H-pyran-3,4,5-triol], for which, in data set [1] (incubation of M1 with 11 human CYP enzymes and NADPH), the “Formation of M4 from M1” value is recorded as “not detected”. Moreover, in data set [2], the “Formation of M1 glucuronides U4 and U5 from M1” value is “not formed”.
As for `OC[C@H]1O[C@@H](c2ccc(F)c(Cc3cc4ccccc4s3)c2)[C@H](O)[C@@H](O)[C@@H]1O` [ipragliflozin], the IC50 in data set [3] is 8.9 ± 1.7 nM.
Consider `Cc1ccc([C@@H]2O[C@H](CO)[C@@H](O)[C@H](O)[C@H]2O)cc1Cc1ccc(-c2ccc(F)cc2)s1` [canagliflozin], for which the “Drug interaction on co-administration” value in data set [4] (glyburide, metformin, and simvastatin) was “did not cause significant drug interactions”. In addition, the “Increase of AUC” value is recorded as 23% in data set [4] (human, cyclosporine A 400 mg) and 20.7% in data set [4] (human, probenecid 500 mg twice per day for 3 days). Besides, the “Decrease of AUC” value in data set [4] (human, repeated rifampin 600 mg/day for 8 days) is 48.7%.
On to `CCOc1ccc(Cc2cc([C@@H]3O[C@H](CO)[C@@H](O)[C@H](O)[C@H]3O)ccc2Cl)cc1` [dapagliflozin], for which the Hepatic extraction entry in data set [5] is “low”. In data set [6] (pretreatment with mefenamic acid 250 mg every 6 h for 5 days), the “Increase of AUC” value is 50%. For the same molecule, the “Decrease of AUC” value in data set [6] (repeated rifampin 600 mg/day for 6 days) is recorded as 22%. Further, in data set [7], the “Share of oxidative metabolism (CYP2D6, CYP3A4, CYP2C9 etc.) in metabolism” value is on record as “less than 10%”.
